Laboratory results as given in patent US20110082130A1 (LIGAND PHARMACEUTICALS, INC., priority 2006, published 2011).

What follows are compounds tested against T1, chimeric human H3 receptor (Homo sapiens, UniProt Q9Y5N1) (assay: Chimeric human H3 receptor GTP binding assay (agonist-stimulated GTP-gamma35S binding, Example 7)). Details: Table II "Ki", symbol *; assay of Example 7.
T1 construct: made in house; host or cells: Sf9 insect cells (baculovirus); P2 membrane preparation
Type: biochemical
Procedure, shortened: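 Sf9 membranes co-expressing chimeric human H3 receptor and heterotrimeric G-protein, 35 μg/tube, in pH 7.4 Tris buffer with 10 μM GDP. Test compounds (10^−10–10^−6 M) competed against 1 μM histamine, […] GTP-gamma35S, 60 min at room temperature. Filter-bound radioactivity counted; IC50 converted to Ki by Cheng-Prusoff. Agonism/inverse agonism tested without histamine (EC50).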

T1 sequence (Q9Y5N1 with tags, fused parts or gaps): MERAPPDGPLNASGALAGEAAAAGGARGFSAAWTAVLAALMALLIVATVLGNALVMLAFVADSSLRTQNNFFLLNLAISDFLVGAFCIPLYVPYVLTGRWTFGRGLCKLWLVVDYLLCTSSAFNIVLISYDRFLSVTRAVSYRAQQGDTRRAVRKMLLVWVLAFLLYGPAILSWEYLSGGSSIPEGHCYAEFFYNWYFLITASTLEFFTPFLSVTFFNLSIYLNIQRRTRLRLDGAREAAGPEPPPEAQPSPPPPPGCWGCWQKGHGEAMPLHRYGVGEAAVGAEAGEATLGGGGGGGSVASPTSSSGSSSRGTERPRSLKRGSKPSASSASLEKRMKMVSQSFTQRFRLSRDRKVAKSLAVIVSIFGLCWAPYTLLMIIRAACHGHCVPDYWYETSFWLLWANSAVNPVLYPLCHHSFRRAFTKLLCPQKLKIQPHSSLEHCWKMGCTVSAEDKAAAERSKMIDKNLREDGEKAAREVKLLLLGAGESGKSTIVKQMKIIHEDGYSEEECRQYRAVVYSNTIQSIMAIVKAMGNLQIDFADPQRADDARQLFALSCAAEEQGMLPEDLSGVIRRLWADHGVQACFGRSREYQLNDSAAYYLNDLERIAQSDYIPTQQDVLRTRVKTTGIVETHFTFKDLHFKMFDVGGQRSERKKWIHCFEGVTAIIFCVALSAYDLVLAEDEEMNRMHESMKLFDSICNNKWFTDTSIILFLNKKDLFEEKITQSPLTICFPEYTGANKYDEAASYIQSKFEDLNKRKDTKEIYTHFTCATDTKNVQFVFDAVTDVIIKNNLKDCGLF

Ki, < 1 µM:
CCOc1cccc(-c2ccc3c(c2)CCN(CC(=O)N2CCN(C4CCC4)CC2)C3)c1 [Compound 482, 2-[2-(4-cyclobutylpiperazin-1-yl)-2-oxoethyl]-6-(3-ethoxyphenyl)-1,2,3,4-tetrahydroisoquinoline]
CCOc1cccc(-c2ccc3c(c2)CCN(CC(=O)N2CCN(C4CCCC4)CC2)C3)c1 [Compound 483, 2-[2-(4-cyclopentylpiperazin-1-yl)-2-oxoethyl]-6-(3-ethoxyphenyl)-1,2,3,4-tetrahydroisoquinoline]
COc1ccc(-c2ccc3c(c2)CCN(CC(=O)N2CCN(C4CCC4)CC2)C3)cc1F [Compound 502, 2-[2-(4-cyclobutylpiperazin-1-yl)-2-oxoethyl]-6-(3-fluoro-4-methoxyphenyl)-1,2,3,4-tetrahydroisoquinoline]
COc1ccc(-c2ccc3c(c2)CCN(CC(=O)N2CCN(C4CCCC4)CC2)C3)cc1F [Compound 503, 2-[2-(4-cyclopentylpiperazin-1-yl)-2-oxoethyl]-6-(3-fluoro-4-methoxyphenyl)-1,2,3,4-tetrahydroisoquinoline]
COc1cc(F)c(-c2ccc3c(c2)CCN(CC(=O)N2CCN(C4CCC4)CC2)C3)cc1F [Compound 506, 2-[2-(4-cyclobutylpiperazin-1-yl)-2-oxoethyl]-6-(2,5-difluoro-4-methoxyphenyl)-1,2,3,4-tetrahydroisoquinoline]
COc1cc(F)c(-c2ccc3c(c2)CCN(CC(=O)N2CCN(C4CCCC4)CC2)C3)cc1F [Compound 507, 2-[2-(4-cyclopentylpiperazin-1-yl)-2-oxoethyl]-6-(2,5-difluoro-4-methoxyphenyl)-1,2,3,4-tetrahydroisoquinoline]
COc1ccc2cc(-c3ccc4c(c3)CCN(CC(=O)N3CCN(C5CCC5)CC3)C4)ccc2c1 [Compound 509, 2-[2-(4-cyclobutylpiperazin-1-yl)-2-oxoethyl]-6-(6-methoxy-2-naphthyl)-1,2,3,4-tetrahydroisoquinoline]
CC(C)Oc1cccc(-c2ccc3c(c2)CCN(CC(=O)N2CCN(C4CCC4)CC2)C3)c1 [Compound 513, 2-[2-(4-cyclobutylpiperazin-1-yl)-2-oxoethyl]-6-(3-isopropoxyphenyl)-1,2,3,4-tetrahydroisoquinoline]
COc1cc(-c2ccc3c(c2)CCN(CC(=O)N2CCN(C4CCC4)CC2)C3)cc(OC)c1OC [Compound 516, 2-[2-(4-cyclobutylpiperazin-1-yl)-2-oxoethyl]-6-(3,4,5-trimethoxyphenyl)-1,2,3,4-tetrahydroisoquinoline]
COc1cc(-c2ccc3c(c2)CCN(CC(=O)N2CCN(C4CCCC4)CC2)C3)cc(OC)c1OC [Compound 517, 2-[2-(4-cyclopentylpiperazin-1-yl)-2-oxoethyl]-6-(3,4,5-trimethoxyphenyl)-1,2,3,4-tetrahydroisoquinoline]
COc1ccc(-c2ccc3c(c2)CCN(CC(=O)N2CCN(C4CCC4)CC2)C3)cc1 [Compound 520, 2-[2-(4-cyclobutylpiperazin-1-yl)-2-oxoethyl]-6-(4-methoxyphenyl)-1,2,3,4-tetrahydroisoquinoline]
COc1ccc(-c2ccc3c(c2)CCN(CC(=O)N2CCN(C4CCCC4)CC2)C3)cc1 [Compound 521, 2-[2-(4-cyclopentylpiperazin-1-yl)-2-oxoethyl]-6-(4-methoxyphenyl)-1,2,3,4-tetrahydroisoquinoline]
COc1ccc(-c2ccc3c(c2)CCN(CC(=O)N2CCN(C4CCC4)CC2)C3)cc1OC [Compound 524, 2-[2-(4-cyclobutylpiperazin-1-yl)-2-oxoethyl]-6-(3,4-dimethoxyphenyl)-1,2,3,4-tetrahydroisoquinoline]
COc1ccc(-c2ccc3c(c2)CCN(CC(=O)N2CCN(C4CCCC4)CC2)C3)cc1OC [Compound 525, 2-[2-(4-cyclopentylpiperazin-1-yl)-2-oxoethyl]-6-(3.4-dimethoxyphenyl)-1,2,3,4-tetrahydroisoquinoline]
COc1ccc(-c2ccc3c(c2)CCN(CC(=O)N2CCN(C4CCCCC4)CC2)C3)cc1OC [Compound 526, 2-[2-(4-cyclohexylpiperazin-1-yl)-2-oxoethyl]-6-(3,4-dimethoxyphenyl)-1,2,3,4-tetrahydroisoquinoline]
COc1ccc(-c2ccc3c(c2)CCN(CC(=O)N2CCN(C(C)C)CC2)C3)cc1OC [Compound 527, 6-(3,4-dimethoxyphenyl)-2-[2-(4-isopropylpiperazin-1-yl)-2-oxoethyl]-1,2,3,4-tetrahydroisoquinoline]
CCOc1ccc(-c2ccc3c(c2)CCN(CC(=O)N2CCN(C4CCC4)CC2)C3)cc1 [Compound 528, 2-[2-(4-cyclobutylpiperazin-1-yl)-2-oxoethyl]-6-(4-ethoxyphenyl)-1,2,3,4-tetrahydroisoquinoline]
CCOc1ccc(-c2ccc3c(c2)CCN(CC(=O)N2CCN(C4CCCC4)CC2)C3)cc1 [Compound 529, 2-[2-(4-cyclopentylpiperazin-1-yl)-2-oxoethyl]-6-(4-ethoxyphenyl)-1,2,3,4-tetrahydroisoquinoline]
CN(C)c1ccc(-c2ccc3c(c2)CCN(CC(=O)N2CCN(C4CCC4)CC2)C3)cc1 [Compound 532, 4-{2-[2-(4-cyclobutylpiperazin-1-yl)-2-oxoethyl]-1,2,3,4-tetrahydroisoquinolin-6-yl}-N,N-dimethylaniline]
CN(C)c1ccc(-c2ccc3c(c2)CCN(CC(=O)N2CCN(C4CCCC4)CC2)C3)cc1 [Compound 533, 4-{2-[2-(4-cyclopentylpiperazin-1-yl)-2-oxoethyl]-1,2,3,4-tetrahydroisoquinolin-6-yl}-N,N-dimethylaniline]
CN(C)c1cccc(-c2ccc3c(c2)CCN(CC(=O)N2CCN(C4CCC4)CC2)C3)c1 [Compound 536, 3-{2-[2-(4-cyclobutylpiperazin-1-yl)-2-oxoethyl]-1,2,3,4-tetrahydroisoquinolin-6-yl}-N,N-dimethylaniline]
COc1ccc(-c2ccc3c(c2)CCN(CC(=O)N2CCN(C4CCC4)CC2)C3)cc1C [Compound 540, 2-[2-(4-cyclobutylpiperazin-1-yl)-2-oxoethyl]-6-(4-methoxy-3-methylphenyl)-1,2,3,4-tetrahydroisoquinoline]

Same assay, conditions: assay of Example 7; "*" in Ki of Table II

Ki, < 1 µM:
CCC(C)N1CCN(C(=O)CN2CCc3cc(-c4ccc(S(C)(=O)=O)cc4)ccc3C2)CC1 (centres unmarked) [Compound 396, 2-[2-(4-sec-butylpiperazin-1-yl)-2-oxoethyl]-6-[4-(methylsulfonyl)phenyl]-1,2,3,4-tetrahydroisoquinoline]
CCC(C)N1CCN(C(=O)CN2CCc3cc(-c4cncnc4)ccc3C2)CC1 (centres unmarked) [Compound 397, 2-[2-(4-sec-butylpiperazin-1-yl)-2-oxoethyl]-6-pyrimidin-5-yl-1,2,3,4-tetrahydroisoquinoline]
COc1cccc(-c2ccc3c(c2)CCN(CC(=O)N2CCN(C4CCC4)CC2)C3)c1 [Compound 475, 2-[2-(4-cyclobutylpiperazin-1-yl)-2-oxoethyl]-6-(3-methoxyphenyl)-1,2,3,4-tetrahydroisoquinoline]
COc1cccc(-c2ccc3c(c2)CCN(CC(=O)N2CCN(C4CCCC4)CC2)C3)c1 [Compound 476, 2-[2-(4-cyclopentylpiperazin-1-yl)-2-oxoethyl]-6-(3-methoxyphenyl)-1,2,3,4-tetrahydroisoquinoline]
